Assay in all cases: DTP human tumour cell line panel, 48 h
In test [1] the test system is OVCAR-4.
Test [2] has as its system HCT-116.
The subject of test [3] is SR.
In test [4] the test system is ACHN.
Test [5] relates to PC-3.
The test system of test [6] is CAKI-1.
Test [7] concerns TK-10.
In test [8] the test system is UACC-257.
Test [9] deals with NCI-H460.
The test system of test [10] is UO-31.
Test [11] has as its system OVCAR-8.
Test [12] concerns SF-295.
Test [13] deals with IGROV-1.
The test system of test [14] is MDA-MB-435.
For test [15], the system named is NCI-H226.
Test [16] has as its system MDA-N.
Test [17] relates to 786-0.
Test [18] has as its system COLO 205.
Test [19] deals with SF-268.
Test [20] deals with RXF 393.

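Cultured in 96-well plates, cells were exposed to test compound for 48 hours across five concentrations. GI50 marks 50% less growth.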 The source made the active and inactive calls. No stated cut-off is given here; in the data, active = GI50 up to about 1.1 µM and inactive = higher. A value given as a limit tells only on which side of the number the result lay.

For orientation: GI50 means the concentration giving 50% growth inhibition. Turning to `O=C(O)CN1CCNCCN(CC(=O)O)CCN(CC(=O)O)CCNCC1`, the GI50 was > 100 µM (inactive) in test [1]; 35.2 µM (inactive) in [2]; 61.1 µM (inactive) in test [3]; > 100 µM (inactive) in test [4]; > 100 µM (inactive) in [5]; > 100 µM (inactive) in test [6]. Also, the GI50 was > 100 µM (inactive) in test [7]; > 100 µM (inactive) in [8]; 68.7 µM (inactive) in test [9]; > 100 µM (inactive) in test [10]; 96.2 µM (inactive) in test [11]; > 100 µM (inactive) in [12]. The GI50 in test [13] was > 100 µM (inactive); in test [14], > 100 µM (inactive); in [15], > 100 µM (inactive); in test [16] it was > 100 µM (inactive); in [17], 93.3 µM (inactive); in [18], 64.1 µM (inactive).

On to `COC(=O)CN(CC(=O)NCCNC(=O)OC(C)(C)C)C1CCCCC1N(CC(=O)OC)CC(=O)OC` (stereo not given), for which the GI50 in test [2], in test [3], in [4], in test [19], in [5] and in [6] was > 100 µM (inactive) each time. For the same molecule, the GI50 in test [7], in [8], in test [9], in test [10], in test [11] and in [12] was > 100 µM (inactive) throughout. Also, the GI50 in [13] is > 100 µM (inactive); in test [14] it was > 100 µM (inactive); in test [15] it was 48 µM (inactive); in [16], > 100 µM (inactive); in test [17], > 100 µM (inactive); in [18] it was > 100 µM (inactive).

Regarding `COc1ccc(C(=O)/C=C2\Nc3cccnc3N\C2=C/C(=O)c2ccc(OC)cc2)cc1`, the GI50 is 2.67 µM (inactive) in [1]; 15.2 µM (inactive) in test [2]; 16.1 µM (inactive) in test [3]; 17.7 µM (inactive) in test [4]; 7.8 µM (inactive) in [19]; > 100 µM (inactive) in [5]. Besides, the GI50 in test [6] was 17.2 µM (inactive); in test [7], 13.2 µM (inactive); in test [8], 26.7 µM (inactive); in [9], 9.18 µM (inactive); in [10], 27.4 µM (inactive); in test [11], 14.3 µM (inactive). Further, the GI50 in test [12] is 16.9 µM (inactive); in test [13], 5.11 µM (inactive); in [14] it was 20.3 µM (inactive); in test [15] it was 4.8 µM (inactive); in test [16] it was 64.7 µM (inactive); in test [17] it was 2.17 µM (inactive). For the same molecule, the GI50 in test [18] was 60.5 µM (inactive).

As for `COC(=O)/C=C/c1cnc2c(c1)oc(=O)n2C`, the GI50 in test [1], in [2], in [3], in test [4], in [19] and in test [5] was > 100 µM (inactive) throughout. Further, the GI50 in test [6], in test [7], in test [8], in [9], in test [10] and in test [11] was > 100 µM (inactive) throughout. Moreover, the GI50 in test [12], in test [13], in test [14], in test [15], in test [16] and in test [17] was > 100 µM (inactive) each time. Also, in [18], the GI50 was > 100 µM (inactive).

With `O=[N+]([O-])c1ccc2sc(/C=N/c3ccccn3)cc2c1`, the GI50 in [20] was > 100 µM (inactive); in [2], 38.4 µM (inactive); in test [3] it was 26.4 µM (inactive); in test [4] it was 98.6 µM (inactive); in test [19], 28.5 µM (inactive); in test [5], 69.5 µM (inactive). In addition, the GI50 was > 100 µM (inactive) in test [6]; > 100 µM (inactive) in [7]; 99.8 µM (inactive) in test [8]; > 100 µM (inactive) in test [9]; > 100 µM (inactive) in [10]; 35.2 µM (inactive) in test [11]. Besides, the GI50 is 82.8 µM (inactive) in test [12]; 60.4 µM (inactive) in test [13]; 71.6 µM (inactive) in [14]; > 100 µM (inactive) in test [16]; > 100 µM (inactive) in test [17]; > 100 µM (inactive) in test [18].

Regarding `NC(=O)c1c[se]c(C2OC(CO)C(O)C2O)n1` (stereo not given), the GI50 in test [1] is 3.99 µM (inactive); in test [2], 3.45 µM (inactive); in test [3], 8.61 µM (inactive); in [4], 5.94 µM (inactive); in test [19], 6.84 µM (inactive); in test [5], 1.44 µM (inactive). The GI50 in test [6] was 6.93 µM (inactive); in test [7], > 91.4 µM (inactive); in test [8], > 100 µM (inactive); in test [9], 17.5 µM (inactive); in test [10], 6.5 µM (inactive); in [11], 4.31 µM (inactive). In addition, the GI50 in [12] was 2.39 µM (inactive); in test [13], 4.98 µM (inactive); in test [14] it was 7.29 µM (inactive); in test [15], > 58.6 µM (inactive); in test [16], 36.4 µM (inactive); in [17], 2.44 µM (inactive). Besides, the GI50 in test [18] was 1.22 µM (inactive).

As for `COc1cc(OC)nc(-n2c(N)c(C#N)c3ccc([N+](=O)[O-])cc3c2=O)n1`, the GI50 in [1], in test [2], in test [3], in [4], in test [19] and in test [5] was > 100 µM (inactive) each time. Also, the GI50 in test [6], in test [7], in [8], in test [9], in test [10] and in test [11] was > 100 µM (inactive) in each case. Besides, the GI50 was > 100 µM (inactive) in test [12]; 79.3 µM (inactive) in test [13]; > 100 µM (inactive) in test [14]; > 100 µM (inactive) in test [16]; > 100 µM (inactive) in test [17]; > 100 µM (inactive) in [18].

For the molecule `O=c1cc(NCC2CCCCC2)[nH]c(=O)[nH]1`, the GI50 in test [20], in test [1], in test [2], in [3], in [4] and in [19] was > 100 µM (inactive) each time. Also, the GI50 in [5], in test [7], in test [8], in [9], in [10] and in test [11] was > 100 µM (inactive) in each case. The GI50 in test [12], in [13], in [14], in test [15], in [16] and in test [17] was > 100 µM (inactive) throughout. In addition, in test [18], the GI50 was > 100 µM (inactive).

For the molecule `O=C(Cn1c(=O)oc2ccc(C(=O)c3ccccc3Cl)cc21)c1ccc([N+](=O)[O-])cc1`, the GI50 in [1] is 10.9 µM (inactive); in test [2], 17.8 µM (inactive); in [3], 8.39 µM (inactive); in test [4] it was 32.7 µM (inactive); in [19] it was 24.8 µM (inactive); in test [5], 22.8 µM (inactive). Also, the GI50 is 38.5 µM (inactive) in test [6]; 51.1 µM (inactive) in test [7]; 31.1 µM (inactive) in [8]; 18.4 µM (inactive) in test [9]; 23.6 µM (inactive) in test [10]; 24.7 µM (inactive) in [11]. Moreover, the GI50 in [12] was 21.8 µM (inactive); in test [13], 23.6 µM (inactive); in test [14], 17.7 µM (inactive); in [15] it was 34.2 µM (inactive); in test [16] it was 18.1 µM (inactive); in test [17], 19.6 µM (inactive). The GI50 in [18] was 20.6 µM (inactive).

Regarding `O=C1Nc2cc(Cl)ccc2C(=O)N2CCC[C@@H]12`, the GI50 in [20], in test [1], in test [2], in test [4], in test [19] and in test [5] was > 100 µM (inactive) in each case. Also, the GI50 in test [6], in [7], in test [8], in test [9], in test [10] and in [11] was > 100 µM (inactive) throughout. Also, the GI50 in test [12] is > 100 µM (inactive); in [13], > 100 µM (inactive); in [14], > 100 µM (inactive); in test [15], 0.929 µM (active); in test [16] it was > 100 µM (inactive); in [17], > 100 µM (inactive). In addition, the GI50 in test [18] is 57.1 µM (inactive).

For `O=C(CC(=O)Nc1ccccc1Cl)NNC(Sc1ccccc1)c1cc(/N=N/c2ccc(Br)cc2)ccc1O` (stereo not given), the GI50 is 1.53 µM (inactive) in [20]; 1.86 µM (inactive) in [1]; 0.387 µM (active) in test [2]; 1.36 µM (inactive) in [4]; 0.74 µM (active) in test [19]; 0.571 µM (active) in test [5]. The GI50 in test [6] was 1.46 µM (inactive); in test [7], 1.69 µM (inactive); in test [8] it was 2.37 µM (inactive); in test [9], 0.625 µM (active); in test [10], 1.14 µM (inactive); in test [11], 0.598 µM (active). The GI50 in [12] is 1.88 µM (inactive); in test [13] it was 2.71 µM (inactive); in [14], 2.06 µM (inactive); in test [15], 1.67 µM (inactive); in [16], 2.06 µM (inactive); in test [17] it was 0.653 µM (active). Further, the GI50 in test [18] is 4.35 µM (inactive).

Source of the values: ChEMBL document CHEMBL1201862, “PubChem BioAssay data set” (2004).
